The source made the active and inactive calls. The calls are words filed in the database; no cut-off is given here.
What was measured:
[1] = Inhibition of Staphylococcus aureus USA300 LAC quorum sensing system Agr assessed as reduction in AIP production measured after 5 hrs by UPLC-MS analysis; design: species or system Staphylococcus aureus subsp. aureus USA300
[2] = target: T1, Accessory gene regulator protein A (Staphylococcus aureus) (UniProt P0A0I7); assay: Inhibition of Staphylococcus aureus USA300 LAC quorum sensing system AgrA assessed as reduction in RNA3 transcription at 9 to 16 uM after 5 hrs by RNA protect cell reagent based qRT-PCR analysis; settings: Staphylococcus aureus subsp. aureus USA300
T1 sequence (whole entry): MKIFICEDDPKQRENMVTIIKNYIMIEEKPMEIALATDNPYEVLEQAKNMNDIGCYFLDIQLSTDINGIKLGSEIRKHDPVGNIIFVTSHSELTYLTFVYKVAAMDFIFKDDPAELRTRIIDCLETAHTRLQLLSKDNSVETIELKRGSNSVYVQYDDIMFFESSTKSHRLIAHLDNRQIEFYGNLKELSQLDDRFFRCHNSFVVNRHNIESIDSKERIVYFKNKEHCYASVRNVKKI

[3] = test system: Staphylococcus aureus subsp. aureus USA300; assay: Inhibition of Staphylococcus aureus USA300 LAC quorum sensing system Agr assessed as reduction in hla transcription at 2.9 to 16 uM after 5 hrs by RNA protect cell reagent based qRT-PCR analysis
[4] = test system: Staphylococcus aureus; assay: Effect on growth of Staphylococcus aureus USA300 LAC measured at 1 hr interval for 5 hrs
[5] = target: T1, Accessory gene regulator protein A (Staphylococcus aureus); assay: Inhibition of Staphylococcus aureus USA300 LAC quorum sensing system AgrA assessed as reduction in psma transcription at 2.9 to 16 uM after 5 hrs by RNA protect cell reagent based qRT-PCR analysis; settings: Staphylococcus aureus subsp. aureus USA300

IC50 [1] [µM]	inhibition [2]	inhibition [3]	inhibition [5]	Structure (SMILES)	Activity [4]
4.6	–	–	–	CC(C)=CCc1c(O)cc(C)cc1Oc1cc(C)c(C(=O)O)c(O)c1	–
1.3	–	–	–	CCCCC/C=C/C1=C(CO)[C@@H](O)[C@H]2O[C@@]2(C/C=C(\C)C(=O)O)C1=O	–
6.3 to 12.5	–	–	–	CC(C)=CC1c2c(O)cc(C)cc2Oc2cc(C)cc(O)c21	–
0.3	Active	Active	Active	CC(C)=C[C@H]1c2c(O)cc(C)cc2Oc2cc(C)c(C(=O)O)c(O)c21	Non-Toxic
6.3 to 12.5	–	–	–	O=C1c2cc(O)cc(O)c2C(=O)c2c(O)cc(CO)cc21	–
